Results reported in ChEMBL document CHEMBL4270619, “Mycobacterial siderophore: A review on chemistry and biology of siderophore and its potential as a target for tuberculosis” (Eur J Med Chem, 2018).

Assay: Stability in rat plasma
Format: ADME, cell-free
Settings: not given

Row | Compound | Stability
1 | CCN(CC)CC.Nc1ncnc2c1ncn2[C@@H]1O[C@H](COS(=O)(=O)NC(=O)c2ccccc2O)[C@@H](O)[C@H]1O | 100%

Assay: Stability in human plasma
Format: ADME, cell-free
Settings: not given

Row | Compound | Stability
2 | CCN(CC)CC.Nc1ncnc2c1ncn2[C@@H]1O[C@H](COS(=O)(=O)NC(=O)c2ccccc2O)[C@@H](O)[C@H]1O | 100%

Assay: Efflux ratio of apparent permeability from basolateral to apical over apical to basolateral side in human Caco2 cells
Format: ADME, cell-based
Settings: caco-2

Row | Compound | Ratio
3 | CC(=O)O[C@H]1[C@@H](F)[C@H](n2cnc3c(N)ncnc32)O[C@@H]1COS(=O)(=O)NC(=O)c1ccccc1O.CCN(CC)CC | 1.5 to 8.5
4 | CCCC(=O)O[C@H]1[C@@H](F)[C@H](n2cnc3c(N)ncnc32)O[C@@H]1COS(=O)(=O)NC(=O)c1ccccc1O.CCN(CC)CC | 1.5 to 8.5
5 | CCCCC(=O)O[C@H]1[C@@H](F)[C@H](n2cnc3c(N)ncnc32)O[C@@H]1COS(=O)(=O)NC(=O)c1ccccc1O.CCN(CC)CC | 1.5 to 8.5
6 | CC(C)C(=O)O[C@H]1[C@@H](F)[C@H](n2cnc3c(N)ncnc32)O[C@@H]1COS(=O)(=O)NC(=O)c1ccccc1O.CCN(CC)CC | 1.5 to 8.5
7 | CCC(=O)O[C@H]1[C@@H](F)[C@H](n2cnc3c(N)ncnc32)O[C@@H]1COS(=O)(=O)NC(=O)c1ccccc1O.CCN(CC)CC | 1.5 to 8.5
8 | CCC(CC)C(=O)O[C@H]1[C@@H](F)[C@H](n2cnc3c(N)ncnc32)O[C@@H]1COS(=O)(=O)NC(=O)c1ccccc1O.CCN(CC)CC | 1.5 to 8.5
9 | CCCCCCCCCCCC(=O)O[C@H]1[C@@H](F)[C@H](n2cnc3c(N)ncnc32)O[C@@H]1COS(=O)(=O)NC(=O)c1ccccc1O.CCN(CC)CC | 1.5 to 8.5
10 | CCCCCCCC(=O)O[C@H]1[C@@H](F)[C@H](n2cnc3c(N)ncnc32)O[C@@H]1COS(=O)(=O)NC(=O)c1ccccc1O.CCN(CC)CC | 1.5 to 8.5
